Tests used:
Caco-2 cells [1] = assay: Intracellular ROS levels, dichlorofluorescein assay; assay type: cell-based, human; settings: for intracellular ROS levels, 1 h and 3 h: Caco-2, treated for 1 h and 3 h at IC50 values; for intracellular ROS levels, 24 h: Caco-2, treated for 24 h with IC50 values
Protocol: Caco-2 cells were seeded in 96-wells plate at a density of 4 × 10^3 cells/well and intracellular ROS levels were determined with the dichlorofluorescein assay. Cells were exposed to drug panel for 1, 3 and 24 h and then incubated with 20 µM 2′-7′-dichlorofluorescein diacetate (DCFH-DA) (Merck KGaA, Darmstadt, Germany) in DMEM. The generation of oxidised derivative DCF was monitored by measuring the increase of fluorescence for 1 h, at an emission wavelength of 520 nm and excitation of 485 nm, with a FLUOstar Omega (BMG Labtech, Ortenberg, Germany) multiplate reader. Results were expressed as percentage of fluorescence respect to control, considering fluorescence intensity as a reflection of intracellular ROS levels.

p53 in Caco-2 cells = assay: Determination of p53 by flow cytometry; assay type: cell-based, human; settings: Caco-2, 48 h, versus non-treated cells
Protocol: (§1) Caco-2 cells were seeded in 75 cm^2 flask at a density of 1 × 10^4 cells/cm^2 and, 24 h later, exposed to drug panel for 48 h. Then cells were collected and processed following instructions by Sánchez-de-Diego et al. Finally, 50 µL of every sample were incubated with 5 µL anti-active caspase-3 (BD Pharmigen, Clone C92-605) and 5 µL p53 antibody (Miltenyi, Clone REA609).

Caco-2 cells [2] = assay: Mitochondrial membrane potential assay by flow cytometry (DilC1); assay type: cell-based, human; settings: Caco-2, 48 h; 3a 5.0 µM, 3b 10.2 µM
Protocol: Caco-2 cells were seeded in 75 cm^2 flasks at a density of 1 × 10^4 cells/cm^2 and 24 h post-seeding medium was replaced with medium containing drug panel and incubated for 48 h. Then. cells were washed twice and resuspended in PBS at a concentration of 10^6 cells/mL before incubation with 5 µL of 10 µM 1,1′,3,3,3′-hexamethylindodicarbo-cyanine iodide (DilC1).

[3] = test system: caspase-3 in Caco-2 cells; assay: Determination of active caspase-3 by flow cytometry; assay type: cell-based, human; settings: Caco-2, 48 h; 3a 5.0 µM, 3b 10.2 µM
Protocol: as §1

[4] = Distribution coefficient (logD7.4), shake-flask n-octanol/buffered water; assay type: physicochemical; settings: n-octanol/phosphate buffered saline pH 7.4, shake-flask
Protocol: The n-octanol-water coefficients of the phosphane derivatives were determined as previously reported using a shake-flask method. Briefly: Buffered-saline distilled water (100 mL, phosphate buffer [PO4^3−] = 10 mM, [NaCl] = 0.15 M, pH 7.4) and n-octanol (100 mL) were shaken together for 72 h to allow saturation of both phases. 1 mg of the complexes was dissolved in 5 mL of the aqueous phase and 5 mL of the organic phase were added, mixing for 10 min. The concentration of the complexes in the organic and aqueous phases were then determined using UV absorbance spectroscopy. LogD7.4 = log{[compound(organic phase)]/[compound(aqueous phase)]}.
The lipophilicity can be measured by the partition coefficient water/n-octanol, logD, by experimental procedures such as the shake flask method, which affords the distribution of the drug between an equal amount of n-octanol and water (or buffered aqueous solution).

Recombinant Human TrxR1 = target: T1, Recombinant Human TrxR1 (Homo sapiens, UniProt Q16881); assay: Thioredoxin reductase 1 (TrxR1) activity assay; assay type: biochemical; settings: auranofin 25 µM; 3a and 3b at IC50 concentrations
T1 construct: purchased Sigma-Aldrich SRP6081
T1 sequence (Q16881 151-649 limits assumed): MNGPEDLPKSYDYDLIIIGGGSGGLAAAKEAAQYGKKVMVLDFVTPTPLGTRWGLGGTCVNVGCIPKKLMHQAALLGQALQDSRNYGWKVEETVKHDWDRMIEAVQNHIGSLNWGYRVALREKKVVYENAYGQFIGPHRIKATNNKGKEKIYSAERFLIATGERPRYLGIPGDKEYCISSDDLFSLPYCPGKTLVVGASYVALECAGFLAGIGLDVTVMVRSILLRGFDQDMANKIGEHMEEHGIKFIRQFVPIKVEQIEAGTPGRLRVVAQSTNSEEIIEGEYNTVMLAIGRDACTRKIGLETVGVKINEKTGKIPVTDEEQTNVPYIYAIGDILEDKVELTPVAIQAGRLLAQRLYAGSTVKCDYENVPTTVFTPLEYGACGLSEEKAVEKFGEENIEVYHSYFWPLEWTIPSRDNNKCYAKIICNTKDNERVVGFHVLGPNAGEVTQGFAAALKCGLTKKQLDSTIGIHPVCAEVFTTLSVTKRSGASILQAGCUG
Protocol: Recombinant Human TrxR1 (Sigma-Aldrich SRP6081, St. Louis, MO, USA) was incubated in a 96 well plate with different concentration of Au complex previously dissolved in 25 μL of PBS at pH 7.4. The cell solution was incubated in shake motion for 5 min at 37 °C. After incubation time, procedure in Thioredoxin Reductase Assay Kit (Sigma-Aldrich CS0170, St. Louis, MO, USA) was followed. Finally, reaction was started by adding 6 μL DNTB and absorbance at 405 nm was recorded every 30 s for 22 min as a measure of Thioredoxin Reductase Activity.

Caco-2 cells [5] = assay: Propidium iodide staining of DNA content and cell cycle analysis; assay type: cell-based, human; settings: 3a 5.0 µM, 3b 10.2 µM; for cells in G0-G1 phase, 40 °C / cells in G2-M phase, 40 °C / cells in S phase, 40 °C: Caco-2, 1 h at 40 °C plus 47 h at 37 °C; for cell cycle progression: Caco-2, 48 h; for cells in G0-G1 phase, 37 °C / cells in G2-M phase, 37 °C / cells in S phase, 37 °C: Caco-2, 48 h at 37 °C
Protocol: Caco-2 cells were seeded in 25 cm^2 flasks at a density of 1 × 10^4 cells/cm^2 and 24 h post-seeding, were exposed to drug panel for 48 h. Cells were fixed as described by Sánchez-de-Diego et al. before staining them with 50 μg/mL PI solution.

SMILES	intracellular ROS levels, 1 h and 3 h (Caco-2 cells [1])	intracellular ROS levels, 24 h (Caco-2 cells [1])	p53 accumulation (p53 in Caco-2 cells)	mitochondrial depolarisation (cells with reduced ΔΨm) (Caco-2 cells [2])	caspase-3 activation (cells with active caspase-3) [3]	logD7.4 [4]	TrxR1 activity related to control (Recombinant Human TrxR1)	cells in G0-G1 phase, 40 °C (Caco-2 cells [5])	cells in G2-M phase, 40 °C (Caco-2 cells [5])	cells in S phase, 40 °C (Caco-2 cells [5])	cell cycle progression (Caco-2 cells [5])	cells in G0-G1 phase, 37 °C (Caco-2 cells [5])	cells in G2-M phase, 37 °C (Caco-2 cells [5])	cells in S phase, 37 °C (Caco-2 cells [5])
FC(F)(F)C(F)(F)C(F)(F)C(F)(F)C(F)(F)C(F)(F)CC[N+]12CN3CN(C1)C[P+]([Au-][S]c1ccccn1)(C3)C2.O=S(=O)([O-])C(F)(F)F [Complex 3b, [Au(C5H5NS)(PTA-CH2CH2(CF2)5CF3)](TfO)]	did not bring significant changes	significant increase	could induce p53 accumulation	induced mitochondrion depolarisation	could induce caspase-3 activation	0.44	Inhibitory effect	48.1%	17.2%	34.7%	increasing amount of cells in G0-G1 phase	41.4%	12.5%	46.1%
CCCCCCCC[N+]12CN3CN(C1)C[P+]([Au-][S]c1ccccn1)(C3)C2.[I-] [Complex 3a, [Au(C5H5NS)(PTA-CH2(CH2)6CH3)]I]	did not bring significant changes	significant increase	could induce p53 accumulation	induced mitochondrion depolarisation	could induce caspase-3 activation	0.35	Inhibitory effect	63.7%	27.78%	8.56%	increasing amount of cells in G0-G1 phase	43.3%	14.4%	42.4%
